Read-outs that look alike come from different tables or passages of the source.
Tests used:
nausea and emesis = details: cited from earlier work
[1] = cited from earlier work
dopamine D2 receptor = dopamine D2 receptor (Homo sapiens, UniProt P14416); assay: dopamine D2 receptor binding, metoclopramide alone and with dexamethasone added
Protocol: Metoclopramide is an inhibitor of the dopamine D2 receptor which negatively effects motor function through D2 blockade causing extrapyramidal signs and symptoms (EPS). The effect of the addition of a steroid, such as dexamethasone, on metoclopramide's binding affinity at the dopamine D2 receptor is studied. […] Dexamethasone is then added in relative concentrations based on weight to achieve the following results: […]

male Spargue-Dawley rats = assay: locomotor depressant effect in rats (center distance traveled, Digiscan activity monitors); type: in vivo, rat; details: metaclopramide 4 mg/kg s.c., rats pretreated with saline, 30 minutes recording
Protocol: In this example, the effect of the addition of a steroid, such as dexamethasone, on metoclopramide's locomotor depressant effects is studied. Forty-eight male Spargue-Dawley rats (250-350 g) are used for this experiment. The rats are housed in pairs and allowed free access to food and water and are not handled except for cage changes and weighing prior to testing. All experimental procedures are performed during the rat's nocturnal cycle, in dimly lit behavior rooms, except that the rats are moved to adjacent behavior rooms 30 minutes prior to testing. Eight rats are tested at a time, four rats from each condition are tested together and groups are randomly chosen to control for order sequence effects. The locomotor experiments are carried out in clear, acrylic 41×41×30 cm test chambers inside Ominitech Digiscan activity monitors (Accuscan, Inc.). Each monitor uses two arrays of infrared photocell beams (8×8 photocells, model RXYZCM-8) to detect several parameters of the rat's movement both horizontally and vertically. Data is collected in 5-min bins during testing. Dexamethasone (Sigma) is dissolved in deionized water at concentrations of 0.16, 0.4, 0.8, and 4 mg/ml. […] Each rat is then immediately placed into a locomotor testing box and the data is recorded for 30 minutes (5-min bins). The data is analyzed with a one way ANOVA for the dependent variable, center distance traveled. […]

Sequence of dopamine D2 receptor (P14416 whole entry, species assumed): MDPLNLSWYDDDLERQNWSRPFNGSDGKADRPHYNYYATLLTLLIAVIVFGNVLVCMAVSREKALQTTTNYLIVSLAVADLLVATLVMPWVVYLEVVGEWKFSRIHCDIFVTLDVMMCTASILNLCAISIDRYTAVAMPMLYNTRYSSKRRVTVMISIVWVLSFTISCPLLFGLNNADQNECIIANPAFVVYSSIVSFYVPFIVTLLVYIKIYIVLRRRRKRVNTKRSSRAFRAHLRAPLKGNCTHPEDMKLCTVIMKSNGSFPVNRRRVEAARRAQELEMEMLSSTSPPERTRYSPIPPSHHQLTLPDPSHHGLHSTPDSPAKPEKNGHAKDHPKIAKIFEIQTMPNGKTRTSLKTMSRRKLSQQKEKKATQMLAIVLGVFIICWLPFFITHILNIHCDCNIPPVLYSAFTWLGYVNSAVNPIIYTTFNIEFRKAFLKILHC

CN1C2CCCC1CC(NC(=O)c1nn(C)c3ccccc13)C2 (stereo not shown) [oral granisetron, granisetron]
anti-emetic efficacy (nausea and emesis; Heron et al. 1994, Chevallier 1993, cisplatin-induced emesis): superior to MTC

Cc1nccn1CC1CCc2c(c3ccccc3n2C)C1=O (stereo not shown) [ondansetron]
anti-emetic efficacy (nausea and emesis; Soukop et al. 1992, repeated chemotherapy for breast cancer): significantly superior than MTC

CCN(CC)CCNC(=O)c1cc(Cl)c(N)cc1OC [metoclopramide]
solubility in aqueous solution ([1]; acid addition salt form): freely soluble in aqueous solution | solubility in water ([1]; free base form): quite water insoluble | % Inhibition D2 Binding (dopamine D2 receptor; MTC 8.6 nM, alone or with DEX (0.7-17.2 nM) added at the stated DEX:MTC weight ratio): 50% | IC50 (dopamine D2 receptor; metoclopramide alone, read-out: IC50 (the concentration that inhibits 50% of dopamine D2 binding)): 8.6 nM | center distance traveled (locomotor depressant effect) (male Spargue-Dawley rats): significantly reduces

Source: patent US20020055495A1, “Two-component anti-emetic composition” (priority 2000, published 2002)
